Results as given in paper PMC9007951, “Systematically evaluating DOTATATE and FDG as PET immuno-imaging tracers of cardiovascular inflammation” (Scientific Reports, 2022).

Experiments:
[1] = tested on: C57Bl/6 mice subjected to myocardial infarction; assay: In vivo PET/CT of cardiac inflammation in infarcted mice; conditions: tracer circulated 60 min, median
Protocol: (§1) Myocardial infarction in mice was induced by permanent ligation of the left anterior descending (LAD) coronary artery of female C57Bl/6 mice (N = 18). Briefly, animals were anesthetized with xylazine (10 mg/kg) and ketamine (100 mg/kg) and intubated using an endotracheal intubation kit from Braintree Scientific (Braintree, MA). Left-sided thoracotomy and pericardial incision were performed. A 7-0 Silk suture was used to occlude the LAD. Incisions were closed with a 5-0 Silk suture. Infarcted animals were treated with 0.1 mg/kg of buprenorphine every 12 h and used 3 days after the surgery.
(§2) For the PET/CT experiments, mice were fasted for 12 h before radiotracer injection and anesthetized with xylazine (10 mg/kg) and ketamine (100 mg/kg) through intraperitoneal injection prior to radiotracer administration. Subsequently they were injected via the lateral tail vein with approximately 22.2 MBq of [^18F]F-FDG or 5.55 MBq of [^64Cu]Cu-DOTATATE. Tracers were allowed to circulate for 60 min. Immediately before imaging, mice were placed under 1% isoflurane (BaxterHealthcare, Deerfield, IL), and subsequently imaged on a high resolution (700 µm) Mediso nanoScan PET/CT scanner (Mediso, Budapest, Hungary). CT scan was acquired at 50 kVp and 300 ms exposure per projection. eXIA160 (Binitio, Ontario, Canada) was used as a contrast agent to improve imaging of the vasculature by intravenous administration of 100 μl per mouse 5 min prior to CT acquisition. PET acquisition time was 40 min. Reconstruction was performed using TeraTomo 3D reconstruction engine, for 8 iterations and 6 subsets per iteration for both tracers. The voxel size was isotropic at 0.3 mm. Immediately after the PET/CT scan, animals were euthanized for ex vivo assays.
(§3) Using OsiriX v5.6 software (OsiriX Foundation, Geneva, Switzerland), regions of interest (ROIs) were drawn to determine organ radioactivity concentration. In mice, for healthy and infarcted myocardium, ROIs were traced manually in the apex of the heart in the axial view. For remote myocardium, analysis was performed in myocardium 180° from the infarcted zone. In the mice aorta, sequential ROIs were drawn in the ascending aorta based on consecutive tomographic (CT) slices beginning from the root up to the brachiocephalic branch, merging point with the aortic arch. Voxel counts were converted to maximum standardized uptake values (SUVmax). In rabbits, PET images were fused with time-of-flight bright blood MRI angiography and ROIs were manually drawn on the infrarenal abdominal aorta in TOF images. The slice-by-slice maximum standard uptake values (SUVmax) were averaged across the whole aorta. […]

[2] = mice; cited from earlier work
From the text: This feature is important when performing in vivo imaging and especially in the vasculature, whose signal can be easily contaminated by the blood pool because of partial volume errors. […] We further used the combination of in ...

[3] = In vivo PET/CT of cardiac inflammation in infarcted mice; conditions: female, mouse, heart, iv, 5.55 MBq, total radioactivity, healthy C57Bl/6 mice, tracer circulated 60 min, median, N = 4, read-out: SUVmax heart of control animals
Protocol: as §1, §2, §3

[4] = Blood half-life of [^64Cu]Cu-DOTATATE, gamma counting of blood, two-phase decay fit; format: in vivo, mice; conditions: for %fast: two-phase decay fit of blood radioactivity over 120 min; for %slow / Weighed t1/2 (weighted blood half-life) / t1/2 fast / t1/2 slow: two-phase decay fit
Protocol: Wild-type and atherosclerotic animals were injected with approximately 1.85 MBq of [^64Cu]Cu-DOTATATE and euthanized at either 1, 5, 15, 30, 60 or 120 min after injection (Supplementary Fig. S1A) to evaluate the tracer’s biodistribution. After euthanasia, an insulin syringe was used to collect blood samples from the right ventricle. Blood samples were used for the establishment of pharmacokinetics profile. Mice were then perfused with 20 mL of phosphate-buffered saline (PBS) and tissues of interest (heart, aorta, bone marrow, spleen, liver, stomach, bladder, kidneys, intestines, lungs, adrenal gland, muscles and pancreas) were harvested. Tissues were blotted for gamma counting on a Wizard2 2480 automatic gamma counter (Perkin Elmer, Waltham, MA). Values were corrected for decay and normalized to tissue weight to express radioactivity concentration as percentage injected dose per gram (%ID/g). […] To investigate the tracer’s distribution within different blood compartments, after gamma counting, 100 μL of blood were spun down at 2000 g for 15 min at 4 °C. Plasma (supernatant) and cells (pellet) were gamma counted and expressed as percentage of total activity. The remainder of the blood was separated using Lymphoprep density gradient medium (Nycomed Pharma, Zurich, Switzerland) following manufacturer’s instructions. Percentage of activity in mononuclear and polynuclear cells was calculated.

[5] = [^68Ga]Ga-DOTATATE distribution in blood fractions (plasma vs cells); format: in vivo, New Zealand White rabbits; conditions: control (N = 2) and athero4mo (N = 3) rabbits
Protocol: Adopting a translational approach, the rabbit studies were performed with the [^68Ga]Ga-labeled tracer, which is already being used in the clinic. [^68Ga]Ga-DOTATATE was purchased from Advanced Accelerator Applications (AAA, Millburn, NJ, USA). To determine its pharmacokinetics, three atherosclerotic rabbits and two healthy controls were injected with approximately 190 MBq of [^68Ga]Ga-DOTATATE. Venous blood was sampled at 1, 5, 10, 15, 20, 30, 60, 120, 180, 240 and 300 min after injection through the ear vein. Samples were weighed and gamma counted. Blood half-life data were fitted using a two-phase decay non-linear regression using GraphPad Prism v8.4.3 (Supplementary Table S1). To investigate the tracer blood distribution, blood samples were centrifuged at 2000 g for 15 min at 4 °C to determine the radioactivity concentration in the plasma and cellular fractions. To analyze [^68Ga]Ga-DOTATATE biodistribution, all rabbits were euthanized after the last imaging time-point using an injection of pentobarbital 100 mg/kg and exsanguination of the portal vein. Rabbits were extensively perfused with 1000 mL of saline. Following, tissues (blood, heart, aorta, liver, kidney, skeletal muscle, small and large intestine, fat, stomach, pancreas and bladder) were harvested, weighed and gamma counted.

[6] = C57Bl/6 mice 3 days after LAD ligation, N = 4 ([^64Cu]Cu-DOTATATE), N = 6 ([^18F]F-FDG)

SMILES: OC[C@H]1OC(O)[C@H]([18F])[C@@H](O)[C@@H]1O (stereo partly shown) [[^18F]F-FDG, [^18F]F-fluorodeoxyglucose]
- SUVmax infarcted myocardium [1, 6]: 4.2
- SUVmax remote (non-infarcted) myocardium [1, 6]: 2.1
- SUVmax heart of control animals ([1]; healthy C57Bl/6 mice, N = 4): 3.4
- blood half-life [2]: 5.1 min

SMILES: C[C@@H](O)[C@H](NC(=O)[C@@H]1CSSC[C@H](NC(=O)[C@@H](Cc2ccccc2)NC(=O)CN2CCN(CC(=O)O)CCN(CC(=O)O)CCN(CC(=O)O)CC2)C(=O)N[C@@H](Cc2ccc(O)cc2)C(=O)N[C@H](Cc2c[nH]c3ccccc23)C(=O)N[C@@H](CCCCN)C(=O)N[C@@H]([C@@H](C)O)C(=O)N1)C(=O)O [[^64Cu]Cu-DOTATATE, metal not drawn]
- SUV at 1 h [3]: 0.6 SUV
- %fast ([4]; Apoe^-/- mice, N = 6): 11.27%
- %slow ([4]; Apoe^-/- mice, N = 6): 88.73%
- Weighed t1/2 (weighted blood half-life) ([4]; Apoe^-/- mice, N = 6): 6.83 min
- t1/2 fast ([4]; Apoe^-/- mice, N = 6): 0.557 min
- t1/2 slow ([4]; Apoe^-/- mice, N = 6): 7.627 min
- %fast ([4]; C57Bl/6 mice, N = 7): 79.14%
- %slow ([4]; C57Bl/6 mice, N = 7): 20.86%
- Weighed t1/2 (weighted blood half-life) ([4]; C57Bl/6 mice, N = 7): 4.83 min
- t1/2 fast ([4]; C57Bl/6 mice, N = 7): 1.939 min
- t1/2 slow ([4]; C57Bl/6 mice, N = 7): 15.81 min

SMILES: C[C@@H](O)[C@H](NC(=O)[C@@H]1CSSC[C@H](NC(=O)[C@@H](Cc2ccccc2)NC(=O)CN2CCN(CC(=O)O)CCN(CC(=O)O)CCN(CC(=O)O)CC2)C(=O)N[C@@H](Cc2ccc(O)cc2)C(=O)N[C@H](Cc2c[nH]c3ccccc23)C(=O)N[C@@H](CCCCN)C(=O)N[C@@H]([C@@H](C)O)C(=O)N1)C(=O)O [[^68Ga]Ga-DOTATATE, metal not drawn]
- distribution between plasma and cells [5]: detected in plasma, rather than cells
